How the values were obtained:
whole brain membranes = assay: Measurement of membrane fluidity (DPH fluorescence anisotropy); design: species or system NMRI mice; details: whole brain membranes from old (22 months) mice; 1, 10, 100 μmol/l and 1 mmol/l; 37° C.; FIGS. 1 and 2
Protocol: The fluidity of whole brain membranes (without cerebellum, medella oblongata and brain stem) from young (3 months) and old (22 months) NMRI mice was determined by fluorescence spectroscopy.
Mouse whole brain membranes were prepared by a modification of the method of Cohnen and Müller, 1993. The deep-frozen hemispheres were, after weighing, transferred into 15 ml of ice-cold buffer IV (Tris-HCl buffer 5 mmol/l; pH 7.4), homogenized using a homogenizer (Potter, glass homogenizer with Teflon pestle, from Braun) at about 1 100 rpm by moving the Teflon pestle up and down about ten times, and transferred into centrifuged tubes (PP30 ml, from Schubert). […]
Membrane fluidity can be measured inter alia by fluorescence spectroscopic methods. In fluorescence polarization spectroscopy, a membrane-bound fluorescent dye is brought to an excited energy state by polarized light of a particular wavelength. […] Membrane fluidity is therefore also indicated as fluorescence anisotropy besides the fluorescence polarization. The anisotropy is in this case calculated from the measured polarization.
The fluorescent dye diphenylhexatriene (DPH) was used for this purpose. […] This process is measured as anisotropy. […]

brain cells = assay: Measurement of the production of free radicals (DHR 123 fluorescence); type: cell-based; details: 100 and 500 μmol/l, time-dependent, compared with control, FIGS. 3 and 4
Protocol: Oxidative stress or the production of free radicals was measured using the fluorescence dye dihydrorhodamine (DHR 123). Brain cells were enriched by incubation with DHR 123 in a waterbath at 37° C. for 15 minutes. DHR is then located in particualr in the mitochondria and fluoresces after oxidation by free radicals. Fluorescence was measured at an excitation wavelength of 500 nm and an emission wavelength of 536 nm. The generation of free radicals was then measured in the absence (control) and presence of lipoic acid at various concentrations (100 and 500 μmol/l).

## O=C(O)CCCCC1CCSS1 (centres unmarked) [lipoic acid, 5-(1,2-dithiolan-3-yl)valeric acid]
Whole brain membranes
  DPH anisotropy (membrane fluidity): reduce the anisotropy in membranes from old mice
Brain cells
  generation of free radicals (increase in DHR 123 fluorescence): counteracts the generation of free radicals

— patent US20030148991A1, “Combination of lipoic acid and c1 donors for the treatment of disorders of the central nervous system” (priority 2000, published 2003)
